# What was measured:
# Test in all cases: relative viability (nuclei count vs DMSO), 5 days (fraction); higher = more cells survive
# EKVX = system: EKVX
# Summary of the method: (§1)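 After 5 days of treatment, lung cancer cells in 1536-well plates were fixed and stained in a single step (final 0.05% Triton X-100, 1% formaldehyde, 1 ug/ml Hoechst) and their nuclei counted on 4× images. Treatment had been applied by pin tool the day after seeding as one drug alone or as a fixed anchor-drug dose with five library-drug doses (not always all listed) in √10 steps. Relative viability is the nuclei count of treated wells divided by that of vehicle wells, and values are medians of duplicate plates.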
# LCLC-97TM1 = system: LCLC-97TM1
# Summary of the method: as §1
# NCI-H647 = system: NCI-H647
# Summary of the method: as §1
# NCI-H2126 = system: NCI-H2126
# Summary of the method: as §1
# EPLC-272H = system: EPLC-272H
# Summary of the method: as §1
# LU99A = system: LU99A
# Summary of the method: as §1
# BEN = system: BEN
# Summary of the method: as §1
# NCI-H1975 = system: NCI-H1975
# Summary of the method: as §1
# NCI-H1395 = system: NCI-H1395
# Summary of the method: as §1
# NCI-H1666 = system: NCI-H1666
# Summary of the method: as §1
# NCI-H2342 = system: NCI-H2342
# Summary of the method: as §1
# NCI-H2087 = system: NCI-H2087
# Summary of the method: as §1
# COR-L 105 = system: COR-L 105
# Summary of the method: as §1
# NCI-H1437 = system: NCI-H1437
# Summary of the method: as §1
# LOU-NH91 = system: LOU-NH91
# Summary of the method: as §1
# NCI-H2085 = system: NCI-H2085
# Summary of the method: as §1
# H3255 = system: H3255
# Summary of the method: as §1
# HOP-62 = system: HOP-62
# Summary of the method: as §1
# 201T = system: 201T
# Summary of the method: as §1
# NCI-H358 = system: NCI-H358
# Summary of the method: as §1
# SW 1573 = system: SW 1573
# Summary of the method: as §1
# HCC-827 = system: HCC-827
# Summary of the method: as §1
# PC-3 [JPC-3] = system: PC-3 [JPC-3]
# Summary of the method: as §1
compound,measurement,setting,value
COc1cc(N2CCC(C(N)=O)CC2)ccc1Nc1nc(N)c(Cl)c(Nc2ccccc2S(=O)(=O)C(C)C)n1 [HG-5-88-01] + COc1cc2c(Oc3ccc(NC(=O)C4(C(=O)Nc5ccc(F)cc5)CC4)cc3F)ccnc2cc1OCCCN1CCOCC1 [Foretinib] (partner 0.25 µM),relative viability,EKVX; first compound 0.04 µM,0.876
same,relative viability,EKVX; first compound 0.1265 µM,0.759
same,relative viability,EKVX; first compound 0.4 µM,0.305
same,relative viability,EKVX; first compound 4 µM,0.757
same,relative viability,LCLC-97TM1; first compound 0.04 µM,0.893
same,relative viability,LCLC-97TM1; first compound 0.1265 µM,0.972
same,relative viability,LCLC-97TM1; first compound 0.4 µM,0.882
same,relative viability,LCLC-97TM1; first compound 1.265 µM,0.864
same,relative viability,LCLC-97TM1; first compound 4 µM,0.326
same,relative viability,NCI-H647; first compound 0.04 µM,1.33
same,relative viability,NCI-H647; first compound 0.1265 µM,1.07
same,relative viability,NCI-H647; first compound 0.4 µM,1.28
same,relative viability,NCI-H647; first compound 1.265 µM,1.05
same,relative viability,NCI-H647; first compound 4 µM,1.31
same,relative viability,NCI-H2126; first compound 0.1265 µM,1.22
same,relative viability,NCI-H2126; first compound 0.4 µM,1.05
same,relative viability,NCI-H2126; first compound 1.265 µM,0.937
same,relative viability,NCI-H2126; first compound 4 µM,1.23
same,relative viability,EPLC-272H; first compound 0.04 µM,0.761
same,relative viability,EPLC-272H; first compound 0.1265 µM,0.735
same,relative viability,EPLC-272H; first compound 0.4 µM,0.593
same,relative viability,EPLC-272H; first compound 1.265 µM,0.472
same,relative viability,EPLC-272H; first compound 4 µM,0.0478
same,relative viability,LU99A; first compound 0.04 µM,0.774
same,relative viability,LU99A; first compound 0.1265 µM,0.751
same,relative viability,LU99A; first compound 0.4 µM,0.781
same,relative viability,LU99A; first compound 1.265 µM,0.83
same,relative viability,LU99A; first compound 4 µM,0.801
same,relative viability,BEN; first compound 0.04 µM,0.399
same,relative viability,BEN; first compound 0.1265 µM,0.702
same,relative viability,BEN; first compound 0.4 µM,0.444
same,relative viability,BEN; first compound 1.265 µM,0.62
same,relative viability,BEN; first compound 4 µM,0.448
same,relative viability,NCI-H1975; first compound 0.04 µM,1.08
same,relative viability,NCI-H1975; first compound 0.1265 µM,0.923
same,relative viability,NCI-H1975; first compound 0.4 µM,0.814
same,relative viability,NCI-H1975; first compound 1.265 µM,0.916
same,relative viability,NCI-H1975; first compound 4 µM,0.397
same,relative viability,NCI-H1395; first compound 0.04 µM,0.988
same,relative viability,NCI-H1395; first compound 0.1265 µM,1.06
same,relative viability,NCI-H1395; first compound 0.4 µM,1.04
same,relative viability,NCI-H1395; first compound 1.265 µM,0.859
same,relative viability,NCI-H1395; first compound 4 µM,0.999
same,relative viability,NCI-H1666; first compound 0.04 µM,1.06
same,relative viability,NCI-H1666; first compound 0.1265 µM,1.06
same,relative viability,NCI-H1666; first compound 0.4 µM,1
same,relative viability,NCI-H1666; first compound 1.265 µM,0.74
same,relative viability,NCI-H1666; first compound 4 µM,0.677
same,relative viability,NCI-H2342; first compound 0.04 µM,1.19
same,relative viability,NCI-H2342; first compound 0.1265 µM,1.06
same,relative viability,NCI-H2342; first compound 0.4 µM,1.13
same,relative viability,NCI-H2342; first compound 1.265 µM,0.697
same,relative viability,NCI-H2342; first compound 4 µM,1.04
same,relative viability,NCI-H2087; first compound 0.04 µM,1.13
same,relative viability,NCI-H2087; first compound 0.1265 µM,1.24
same,relative viability,NCI-H2087; first compound 0.4 µM,1.06
same,relative viability,NCI-H2087; first compound 1.265 µM,1.14
same,relative viability,NCI-H2087; first compound 4 µM,0.864
same,relative viability,COR-L 105; first compound 0.04 µM,1.05
same,relative viability,COR-L 105; first compound 0.1265 µM,1.11
same,relative viability,COR-L 105; first compound 0.4 µM,1.16
same,relative viability,COR-L 105; first compound 1.265 µM,0.969
same,relative viability,COR-L 105; first compound 4 µM,0.629
same,relative viability,NCI-H1437; first compound 0.04 µM,1.27
same,relative viability,NCI-H1437; first compound 0.1265 µM,1.28
same,relative viability,NCI-H1437; first compound 0.4 µM,0.912
same,relative viability,NCI-H1437; first compound 1.265 µM,1.2
same,relative viability,NCI-H1437; first compound 4 µM,1.37
same,relative viability,LOU-NH91; first compound 0.04 µM,0.905
same,relative viability,LOU-NH91; first compound 0.1265 µM,0.902
same,relative viability,LOU-NH91; first compound 0.4 µM,0.872
same,relative viability,LOU-NH91; first compound 1.265 µM,0.455
same,relative viability,LOU-NH91; first compound 4 µM,0.672
same,relative viability,NCI-H2085; first compound 0.04 µM,0.852
same,relative viability,NCI-H2085; first compound 0.1265 µM,0.947
same,relative viability,NCI-H2085; first compound 0.4 µM,0.907
same,relative viability,NCI-H2085; first compound 1.265 µM,0.704
same,relative viability,NCI-H2085; first compound 4 µM,0.807
same,relative viability,H3255; first compound 0.04 µM,0.854
same,relative viability,H3255; first compound 0.1265 µM,0.874
same,relative viability,H3255; first compound 0.4 µM,0.856
same,relative viability,H3255; first compound 4 µM,0.649
same,relative viability,HOP-62; first compound 0.04 µM,1.15
same,relative viability,HOP-62; first compound 0.1265 µM,1.12
same,relative viability,HOP-62; first compound 0.4 µM,1.01
same,relative viability,HOP-62; first compound 1.265 µM,1.13
same,relative viability,HOP-62; first compound 4 µM,1.3
same,relative viability,201T; first compound 0.04 µM,1.18
same,relative viability,201T; first compound 0.1265 µM,1.09
same,relative viability,201T; first compound 0.4 µM,1.12
same,relative viability,201T; first compound 1.265 µM,0.444
same,relative viability,201T; first compound 4 µM,1.02
same,relative viability,NCI-H358; first compound 0.04 µM,0.676
same,relative viability,NCI-H358; first compound 0.1265 µM,0.605
same,relative viability,NCI-H358; first compound 0.4 µM,0.479
same,relative viability,NCI-H358; first compound 1.265 µM,0.224
same,relative viability,NCI-H358; first compound 4 µM,0.23
same,relative viability,SW 1573; first compound 0.04 µM,0.868
same,relative viability,SW 1573; first compound 0.1265 µM,0.816
same,relative viability,SW 1573; first compound 0.4 µM,0.942
same,relative viability,SW 1573; first compound 1.265 µM,0.736
same,relative viability,SW 1573; first compound 4 µM,0.624
same,relative viability,HCC-827; first compound 0.04 µM,1.06
same,relative viability,HCC-827; first compound 0.1265 µM,1.12
same,relative viability,HCC-827; first compound 0.4 µM,1.05
same,relative viability,HCC-827; first compound 1.265 µM,0.965
same,relative viability,HCC-827; first compound 4 µM,0.579
same,relative viability,PC-3 [JPC-3]; first compound 0.04 µM,1.07
same,relative viability,PC-3 [JPC-3]; first compound 0.1265 µM,1.04
same,relative viability,PC-3 [JPC-3]; first compound 0.4 µM,1.03
same,relative viability,PC-3 [JPC-3]; first compound 1.265 µM,0.99
same,relative viability,PC-3 [JPC-3]; first compound 4 µM,0.724
